Test results reported in ChEMBL document CHEMBL1130954, “Design and synthesis of analogs of vitamin E: antiproliferative activity against human breast adenocarcinoma cells” (Bioorg Med Chem Lett, 1998).

What follows are molecules tested on MCF7 (assay: Compound was tested for antiproliferative activity against human breast cancer cell line MCF-7 in MTT assay).
Type: functional, cell-based

SMILES	IC50 [µM]
CCCCC(=O)OCC1(C)CCc2c(C)c(OC(=O)[C@@H](N)CCCCN)c(C)c(C)c2O1 (some centres undefined)	15
Cc1c(C)c2c(c(C)c1OC(=O)[C@@H](N)CCCCN)CCC(C)(COC(=O)CCC(C)[C@H]1CC[C@H]3[C@@H]4[C@H](O)C[C@@H]5C[C@H](O)CC[C@]5(C)[C@H]4C[C@H](O)[C@]13C)O2 (some centres undefined)	4
Cc1c(C)c2c(c(C)c1OC(=O)[C@@H](N)CCCCN)CCC(C)(CO)O2 (some centres undefined)	194
CCCCCOCC1(C)CCc2c(C)c(OC(=O)[C@@H](N)CCCCN)c(C)c(C)c2O1 (some centres undefined)	22
Cc1c(C)c2c(c(C)c1O)CCC(C)(C(=O)O)O2 (centres undefined) [TROLOX]	1460

Now from value to molecule:

IC50 [µM]	SMILES
> 368	Cc1c(C)c2c(c(C)c1OC(=O)CCC(=O)O)CC[C@@](C)(CCC[C@H](C)CCC[C@H](C)CCCC(C)C)O2 [(+)-ALPHA-TOCOPHERYL SUCCINATE]
> 500	CC(=O)Oc1c(C)c(C)c2c(c1C)CC[C@@](C)(CCC[C@H](C)CCC[C@H](C)CCCC(C)C)O2
329	Cc1c(C)c2c(c(C)c1O)CC[C@@](C)(CCC[C@H](C)CCC[C@H](C)CCCC(C)C)O2 [ALPHA-TOCOPHEROL]
12	Cc1c(C)c2c(c(C)c1OC(=O)[C@@H](N)CCCCN)CC[C@@](C)(CCC[C@H](C)CCC[C@H](C)CCCC(C)C)O2
